# A melting point compilation (Tetko et al.; mined from patent text by program, amines drawn as free bases though some values may be those of a salt)
row,Structure (SMILES),melting point [°C]
1,Cn1c(COc2ccc(CC3SC(=O)NC3=O)cc2)nc2ccc(OCCc3ccc(NC(=O)Nc4ccc(C(F)(F)F)cc4)cc3)cc21 (stereo not drawn),145 to 147
2,CCCCOc1ccc(S(C)(=O)=O)cc1-c1nc2c(CC)n(C3CN(C(C)C)C3)nc2c(=O)[nH]1,209 to 213
3,Nc1sc2c(c1C(=O)c1ccc3c(c1)Cc1ccccc1-3)CCCC2,146 to 149
4,CC1N=CC=C(CS)C1(O)CC(=O)O (stereo not drawn),185 to 187
5,CCCCNC(=O)Oc1ccc2oc3ccccc3c2c1,124 to 126
6,CC(C)(C)c1ccc(C(CO)NC(=O)c2c(F)c(F)cc(F)c2F)cc1 (stereo not drawn),158 to 160
7,O=C(O)C1(c2ccc(Cl)cc2)OCC(c2ccc(F)cc2)(c2ccc(F)cc2)CO1,228 to 230
8,CCc1cccc(C)c1CNc1c(NC(C)(C)C)c(=O)c1=O,240 to 244
9,c1ccc(Oc2ncc(-c3cnc(-c4ccccc4)[nH]3)cn2)cc1,254
10,CCOC(=O)c1ncn2c1C(C)N=C(c1ccccn1)c1cc(Br)ccc1-2 (stereo not drawn),193 to 195
11,CC(Cl)(Cl)C(NC(=O)c1cccc(Cl)c1)NC(=NC#N)Nc1cccc(F)c1 (stereo not drawn),179 to 181
12,O=C1CCCN1c1ccc(F)cc1F,95 to 97
13,COc1ccc([N+](=O)[O-])cc1C(=O)NCc1ccc(C(F)(F)F)cc1,108 to 109
14,N#CCCNC(=O)C1=CC(CF)(CF)Oc2ccc(Cl)cc21,134 to 136
15,COC(=O)c1cscc1OC(C)=O,56 to 58
16,CCOCOc1c(-c2ccc(C(=O)Nc3ccc(OC(C)=O)cc3)cc2)ccc2cc(OC)c(C34CC5CC(CC(C5)C3)C4)cc12,206 to 207
17,N=C(N)Nc1nc(CSCCNc2[nH]ccc2[N+](=O)[O-])cs1,196 to 200
18,CCCCCCC(C(=O)O)n1cnc([N+](=O)[O-])c1 (stereo not drawn),112 to 114
19,Cc1cc(CN2CCC(N(C)S(=O)(=O)c3ccc(Nc4nccc(Nc5ccc(F)c(F)c5)n4)cc3)CC2)no1,204 to 206
20,CCOC(=O)c1cc2c(=O)c3cc(C(C)CO)ccc3oc2nc1N (stereo not drawn),255 to 256
21,O=C(O)Cc1ccc[nH]1,83 to 84
22,O=C1NCCc2ccc(OCCCCN3CCN(c4cccc5ccccc45)CC3)nc2N1,188 to 190
23,COc1cc(C=CC(=O)Nc2c(-c3ccccc3C)c3cc(Cl)c(C)cc3oc2=O)cc(OC)c1OC(C)=O,248 to 250
24,CN(Cc1coc(C=Cc2ccc(C(F)(F)F)cc2)n1)c1ccc(OCCCn2ccnn2)cc1,137 to 138
25,CSc1ncnn1C[C@]1(c2cccc(F)c2)O[C@@H]1c1ccccc1Cl (relative stereo),98

row,Structure (SMILES),melting point [°C]
1,COCC(=O)Nc1nc2ccc([N+](=O)[O-])cc2s1,230 to 233
2,CN1CC=C(c2c[nH]c3ccc(Oc4ccccc4)cc23)CC1,135 to 137
3,Cc1c(NC(=O)c2ccc(OC[C@@H]3CCCO3)cc2F)ccc2cc(CNCC(C)(C)O)n(C)c12,132 to 133
4,CCOC(=O)C(=O)Nc1cccc(OCc2ccccc2)c1C(N)=O,151 to 153
5,Nc1cccc(S(=O)(=O)C(F)(F)C(F)Cl)c1 (stereo not drawn),66 to 67.5
6,CNC(=O)N(c1ccc(OC(F)(F)F)cc1)c1nc(OCC(F)(F)F)cc(OCC(F)(F)F)n1,123 to 125
7,NS(=O)(=O)c1ccc(OC2CCCCO2)s1 (stereo not drawn),90 to 92
8,COCc1cc(Cl)n2nc(SC)c(S(=O)(=O)c3ccccc3)c2n1,194 to 197
9,C[C@H]1COc2c(N3CC(C)(N)C4(CC4)C3)c(F)cc3c(=O)c(C(=O)O)cn1c23 (stereo partly drawn),268 to 270
10,COC(=O)CCc1cc(F)ccc1C(=O)CCCNC(C)=O,39 to 40
11,O=C(NCCc1ccc(O)c(O)c1)c1cccnc1,156 to 162
12,O=C1C2C3C=CC(C3)C2C(=O)N1OS(=O)(=O)CCSC1CCCCC1 (stereo not drawn),96 to 98
13,C=CC(=O)N1CCC(C(=O)O)CC1,109 to 110
14,O=C(c1cccs1)c1cnn2c(-c3cccc(NC/C=C/c4ccc([N+](=O)[O-])cc4)c3)ccnc12,163 to 166
15,CC[Si](CC)(CC)c1ccc2c(c1)cc(C(=O)Nc1ccc(N3CCC3)nc1)n2Cc1cccc(F)c1,166 to 168
16,Fc1ccc(F)c(CN2CCNc3ncc(-c4cn[nH]c4)cc32)c1Cl,272
17,CCOC(=O)CC(=O)c1ccc(Br)cc1Cl,34
18,O=C1COCCOCC(=O)NCCOCCOCCOCCN1,90 to 91
19,Cc1c(NC(=O)c2ccc(-c3ccc(F)cc3)cc2)ccc2cc(C(C)N3CCCCC3)cnc12 (stereo not drawn),168 to 170
20,O=C(N[C@H]1CC[C@H](CCN2CCN(c3nccc4c3OCC4)CC2)CC1)c1ccc(C(F)(F)F)cc1,242
21,O=C1NC(=O)C(Cc2ccc(OCCn3ccc4cccnc43)cc2)S1 (stereo not drawn),200 to 202
22,COc1cc(N)ccc1NC(=O)c1ccc(N)cc1,160 to 161
23,CCC(=O)c1ccc(OC)c(O)c1,91 to 92
24,CCCCCNS(=O)(=O)NC(=O)CCc1ccc(OCCOC)cc1Oc1ncc(C(F)(F)F)cc1Cl,153 to 154
25,CN1CC(CNNC(=S)Nc2ccccc2)CC2c3cccc4[nH]cc(c34)CC21 (stereo not drawn),205 to 206

row,Structure (SMILES),melting point [°C]
1,COc1ccc(N2c3ccccc3Sc3ccccc32)cc1,173 to 176
2,c1ccc([C@H]2OC2(c2ccccc2)c2ccccc2)cc1,91 to 92
3,NC(=O)CNC(=O)c1cccc(-c2ccc(F)c3cc(Cc4ccc(F)c(F)c4)sc23)c1,161 to 162
4,O=C(NCc1ccc2c(c1)OCO2)Nc1cc(N2CC(c3ccccc3)CC2=O)ccn1 (stereo not drawn),185 to 188
5,CCc1cnc(N2CCC(c3ccc(COc4ccc(C#N)c(F)c4)nc3)CC2)nc1,129 to 131
6,Cc1cc(C)nc(-n2nc(C)nc2N)n1,237
7,CC(C)(C#N)Cc1cccc(-c2cccc(CC(C)(C)C#N)c2)c1,96 to 103
8,O=C(O)CCCNC(=O)CCCNC(=O)c1cc(Br)no1,157 to 158
9,COC(=O)c1ccccc1CC(=O)Nc1cccc(/C=C/c2nc(C3CCC3)cs2)c1,143 to 144
10,CC(=O)OCC1CCCn2c(cc3ccccc32)C1 (stereo not drawn),65
11,CC(C)(C)OC(=O)CN(C(=O)CNC(=O)c1ccc2ccccc2n1)c1ccccc1,114
12,CN(C(=O)c1ccco1)c1cccc(-c2nc(=O)c3ccccc3s2)n1,186 to 187
13,Cn1c([N+](=O)[O-])cnc1COc1ccc([N+](=O)[O-])cc1Cl,138
14,COc1cc2[nH]nc(CN3CCN(c4ccccc4OC)CC3)c2cc1OC,192
15,Cc1c(C(=O)Nc2ccc(N3CCN(CCCO)CC3)c(C#N)c2)cnn1-c1ccc(Cl)cc1,213
16,Cn1cc(C=O)c2cccc(F)c21,92 to 94
17,O=C(Cc1ccc(Cl)cc1)c1ccc(Br)cc1,128 to 129
18,Cc1c(C(=O)O)oc2ccc(Br)c(OC(C)C)c12,182 to 184
19,CC[C@H]1[C@@H](O)C(F)(F)C(=O)N1c1ccc(C#N)c(Cl)c1,137 to 140
20,CC(C)(C)OC(=O)C(N)c1nc(-c2ncn3c2C2CCN2C(=O)c2cc(F)ccc2-3)no1 (stereo not drawn),147 to 150
21,O=C(CCc1ccc(Cl)cc1Cl)NC1CC(=O)c2ccccc2NC1=O (stereo not drawn),234 to 236
22,COc1c(/C=C/c2cc(/C=C/c3ccc4cc[nH]c4c3)n[nH]2)cccc1OCc1ccccn1,109 to 114
23,CS(=O)(=O)c1ccc(-c2c(Cl)c3cccccc-3c2-c2ccccc2)cc1,140 to 142
24,CSc1ccc(/C=C2/C(CCN(O)C(N)=O)=C(C)c3ccccc32)cc1,120 to 122
25,CN(C=C(C#N)C(=O)Nc1ccccc1Cl)Cc1ccccc1Cl,138 to 139

row,Structure (SMILES),melting point [°C]
1,O=[N+]([O-])c1ccc2c(c1)CN[C@H](CO)C2,184
2,Nc1cc2cccc(F)c2oc1=O,173 to 174
3,COc1c(OCc2ccc(-c3ccccc3S(=O)(=O)Nc3noc(C)c3C)c(COCCF)c2)cc(C)nc1C,81 to 86
4,CCCc1c(C(=O)N(C)Cc2ccc3c(Br)c(O)ccc3c2)cnn1-c1ccccc1,205 to 207
5,CCOC(=O)Cc1nsc2ccc([N+](=O)[O-])cc12,91 to 92
6,CCc1nc2c(N)nc3ccccc3c2n1OC,216 to 217
7,Cc1ccc(-c2ncc3c(n2)CCCCC3)nc1-c1ccccc1,151 to 154
8,CCCCOc1cc(CCC(=O)O)ccc1OCCCc1cn(-c2ccc(C(F)(F)F)cn2)nc1OCC,92 to 93
9,CCCCCCCCCCCCCCCCCCCCCCOC(=O)P(=O)(OC)OC,60 to 61
10,COC(=O)C=Cc1ccc2c(c1)Cc1cc(C=CC(=O)OC)ccc1-2,206 to 209
11,O=C1CCC(N2Cc3cc(CNC(=O)Nc4cccc(Oc5ccccc5)c4)ccc3C2=O)C(=O)N1 (stereo not drawn),224 to 226
12,CCOC(=O)c1c(O)c2cc(Cl)cnc2n(Cc2ccc(OC)cc2)c1=O,185 to 187
13,Cc1oc(-c2ccccc2)nc1CSc1ccc(S(=O)(=O)Nc2ccccc2C(=O)O)cc1,182 to 184
14,CC(C)(C)OC(=O)CCc1cccc(-c2nc(=O)c3ccc(Cl)cc3s2)n1,168
15,CCCCCOc1ccc(-c2ccc(CC[C@H]3CC[C@H](CCC)CC3)c(F)c2F)cc1,27
16,C=CCC1CC(=O)N1C(C(=O)OCOC(=O)C(C)(C)C)=P(c1ccccc1)(c1ccccc1)c1ccccc1 (stereo not drawn),140 to 142
17,Cc1cccc(C(O)CNC2=NCCN2)c1 (stereo not drawn),121
18,FC(F)(F)c1c[nH]cc1-c1cccc(Cl)c1Cl,63 to 65
19,O=C1CCCN1CCCN=c1sc2ccccc2s1,101 to 104
20,CCN1C(Oc2ccc(C)cc2)=NS(=O)(=O)N=C1Oc1ccc(C)cc1,302 to 304
21,CC12CC(c3ccc(OS(=O)(=O)C(F)(F)F)cc3)C3C4CCC5(CC4=CCC3C1CCC2=O)OCCO5 (stereo not drawn),208 to 210
22,O=C(NCc1ccc(Cl)cc1)c1cnc2ccc(CO)cc2c1O,288 to 289
23,COc1ccc(C2(c3ccc(N(C)C)cc3)OC(=O)c3ccc(N(C)C)cc32)cc1 (stereo not drawn),156 to 161
